{
  "source": "patent US20040014726A1",
  "about": "“Method for the preparation of a pharmaceutical composition, and its use” (priority 2000, published 2004)",
  "key": {"[1]": {"tested_on": "osteoclast formation in mouse bone marrow culture", "test": "Mouse bone marrow culture, osteoclast formation (TRAP-positive multinucleated cells)", "format": "cell-based", "protocol": "This culture system is the most used method to study osteoclast differentiation (Takahashi et al. 1988a). Mouse marrow cells can be induced to form active osteoclasts in 6-8 days in the presence of an osteotropic factor, such as 1,25(OH)2D3, parathyroid hormone, interleukin-1 or prostaglandin E2 (Takahashi et al. 1988b, Shinar et al. 1990, Collins and Chambers 1992, Jimi et al. 1999). Typically, 10^6 cells are cultured/ml of media for 6 days. Then, the cells are fixed with 3% paraformaldehyde in PBS and stained for osteoclast marker, such as tartrate-resistant acid phosphatase (TRAP). Sigma's immunohistochemical kit can be used. Multinucleated, TRAP-positive cells containing at least 3 nuclei are counted as osteoclasts (Hentunen et al. 1998).\n(§1) The concentration range of the test compound in these assays was 10^−10-10^−5 M."}, "[2]": {"tested_on": "osteoclast formation in spleen cell culture", "test": "Mouse spleen cell culture, osteoclast formation", "format": "cell-based", "source_text": "as §1"}, "[3]": {"tested_on": "mouse osteoprogenitor cells (preosteoblasts) supporting osteoclast formation", "test": "Mouse spleen cell/osteoblast co-culture with pre-treated osteoprogenitor cells", "format": "cell-based", "conditions": "osteoprogenitor cells incubated with 10^-5 M for 24 h, then co-culture with spleen cells; data not shown", "source_text": "Bone marrow stromal cells have long been known as a source of osteoprogenitor cells (Owen and Friedenstein 1988). […] These preosteoblasts can be further induced to form active osteoblasts by continuing the cultures for two more weeks in the presence of estrogen (17β-estradiol). During this culture period cells begin to express increasing levels of osteoblast markers, such as alkaline phosphatase, type I collagen and osteocalcin, and finally they are able to form bone. Bone formation is detected by bone nodule formation and calcium deposition in the cultures (Qu et al. 1998).\nA co-culture system was developed, which contains mouse spleen cells and primary mouse osteoprogenitor cells. Osteoprogenitor cells were prepared from mouse marrow as described in section C.\nWhen these two cell types were cultured in the presence of 1,25(OH)2D3, several osteoclasts were formed. Spleen cells alone with 1,25(OH)2D3 were not able to differentiate into osteoclasts. Mouse osteoprogenitor cells, which were able to support osteoclast formation, were incubated first with 10^−5 M of the said test compound for 24 h and then these cells were used in the co-culture with mouse spleen cells. […] This further supports the idea, that the test compound has direct inhibitory effect on osteoclast precursors."}, "isolated rat osteoclasts": {"tested_on": "isolated rat osteoclasts", "test": "Rat osteoclast culture on bovine bone slices", "format": "cell-based", "protocol": "Osteoclasts can be isolated from long bones of several species and they are cultured on bone or dentine slices to study their resorption activity (Boyde et al. 1984, Chambers et al 1984). Mostly, either rat or rabbit osteoclasts are used. They are isolated from new-born animals and cultured for 1-2 days. The resorption activity is determined either by counting the number of resorption pits on bone/dentine slices or the total resorption area is measured using a phase contrast microscope and image analysis system. We are routinely using isolated rat osteoclasts and we culture them on bovine bone slices for two days, after which we fix the cells. Cells are stained with toluidine blue and counted under the microscope (Arnett and Dempster 1987, Lakkakorpi et al. 1989). Then the cells are removed by brushing them and the resorption pits are stained with WGA lectin, which binds to resorption lacuna in the bone slice. The number and area of pits are quantified (Selander et al. 1994).\nas §1"}, "ovariectomized rats": {"tested_on": "ovariectomized rats", "test": "Tests on ovariectomized rats (pQCT and bone strength)", "format": "in vivo, rat", "conditions": "12 weeks", "protocol": "The activity of [[(3-hydroxy-2-pyridyl)amino]methylidene]bisphosphonic acid tetraethylester (TC) has been tested in ovariectornized rats. In the said tests, the compound to be tested was administered to six-month old rats. The control rats were sham-operated or overiectomized and given vehicle. The compound was given to ovariectomized rats orally 7 days a week for 12 weeks beginning immediately after the surgery. The doses were 10, 50 and 100 mg/kg/day. At the end of the study, the mineral density and the geometry of the bone was measured with pQCT (peripheral quantitative computed tomography). The strength of the bone was measured with electromechanical materials testing machine. The sites of measurement were the proximal end of the tibia (not strength), the lumbar vertebra, the femoral neck and the tibial mid-diaphysis. The parameters to be measured were the bone density of the trabecular or cortical bone, the cortical area and strength of the bone."}, "[4]": {"tested_on": "bone metastases of human breast cancer cells in the mouse", "test": "Metastasis model in mouse (human breast cancer cells, osteolytic bone lesions)", "format": "in vivo", "conditions": "50 mg/kg/day s.c. for 10 days", "protocol": "The effect of the test compound has been tested in a metastasis model in the mouse. 14 days after inoculation with human breast cancer cells, when the radiologically detected osteolytic bone lesions were found, the animals were treated either with PBS (control) or the test compound (50 mg/kg/day, s.c.) for 10 days. At the end of the study, osteoclast number and bone area were measured histomorphometrically."}},
  "data": [
    {"molecule": "CCOP(=O)(OCC)C(Nc1ncccc1O)P(=O)(OCC)OCC", "note": "[test compound, [[(3-hydroxy-2-pyridinyl)amino]methylidene]bisphosphonic acid tetraethylester]", "values": [
      {"measurement": "inhibition at 1 µM", "setting": "[1]; Mus musculus, Osteoclast, at 10^-6 M", "result": 60, "unit": "%"},
      {"measurement": "TRAP-positive MNC formation", "setting": "[1]; at 10^-5 M", "result": "inhibit completely"},
      {"measurement": "toxic effect on other cells", "setting": "[1]; at 10^-5 M", "result": "without having toxic effect on other cells"},
      {"measurement": "1,25(OH)2D3- and PTH-induced osteoclast formation", "setting": "[1]; bone marrow culture, concentration range 10^-10-10^-5 M", "result": "dose dependently inhibited"},
      {"measurement": "inhibition at 1 µM", "setting": "[2]; Mus musculus, Osteoclast, at 10^-6 M concentration", "result": 60, "unit": "%"},
      {"measurement": "TRAP-positive MNC formation", "setting": "[2]; at 10^-5 M", "result": "completely blocked"},
      {"measurement": "osteoclast-like cell formation (TRAP-positive MNC or mononuclear cells)", "setting": "[2]; at 10^-5 M, data not shown", "result": "totally blocked"},
      {"measurement": "inhibition of osteoclast formation", "setting": "[2]; compound present on days 4-6", "result": "approximately 40%"},
      {"measurement": "inhibition of osteoclast formation", "setting": "[2]; compound present only at days 1-3", "result": "more than 60%"},
      {"measurement": "osteoclast formation in spleen cell culture", "setting": "[2]; concentration range 10^-10-10^-5 M", "result": "dose dependently inhibited"},
      {"measurement": "support of osteoclast formation by treated preosteoblasts", "setting": "[3]", "result": "supported osteoclast formation in the similar manner as non-treated preosteoblasts"},
      {"measurement": "osteoclast-mediated bone resorption", "setting": "isolated rat osteoclasts; data not shown", "result": "did not have any effect"},
      {"measurement": "osteoclast apoptosis", "setting": "isolated rat osteoclasts; osteoclasts cultured for 1-2 days on bovine bone slices", "result": "did not have any effect"},
      {"measurement": "change in the cortical area in the femoral neck caused by ovariectomy", "setting": "ovariectomized rats; 50 mg/kg/day oral", "result": "inhibited the change"},
      {"measurement": "strength of the tibial mid-diaphysis", "setting": "ovariectomized rats; 50 mg/kg/day oral", "result": "improved, although not to a significantly meaningful degree"},
      {"measurement": "cortical area in the tibial mid-diaphysis", "setting": "ovariectomized rats; 50 mg/kg/day oral, compared to a normal rat and an ovariectomized rat", "result": "increase of the cortical area"},
      {"measurement": "change in the trabecular density in the femoral neck caused by ovariectomy", "setting": "ovariectomized rats; 100 mg/kg/day oral", "result": "inhibited the change"},
      {"measurement": "area of the cortical bone in the lumbar vertebra, reduction by ovariectomy", "setting": "ovariectomized rats; 50 and 100 mg/kg/day oral", "result": "inhibit these changes"},
      {"measurement": "density of the trabecular bone in the lumbar vertebra, reduction by ovariectomy", "setting": "ovariectomized rats; 50 and 100 mg/kg/day oral", "result": "inhibit these changes"},
      {"measurement": "strength of the cortical bone in the lumbar vertebra, reduction by ovariectomy", "setting": "ovariectomized rats; 50 and 100 mg/kg/day oral", "result": "inhibit these changes"},
      {"measurement": "thickness of the cortical bone (pQCT), reduction caused by ovariectomy", "setting": "ovariectomized rats; oral, FIG. 5 lower row", "result": "can be inhibited"},
      {"measurement": "tumor induced decrease in bone area at the site of metastases", "setting": "[4]", "result": "inhibited"},
      {"measurement": "number of osteoclasts at the tumor-bone interface", "setting": "[4]; compared to PBS control", "result": "decreased significantly"}
    ]}
  ]
}
